Test results as given in ChEMBL document CHEMBL4152284, “Novel tetrahydrocarbazole benzyl pyridine hybrids as potent and selective butryl cholinesterase inhibitors with neuroprotective and β-secretase inhibition activities” (Eur J Med Chem, 2018).
pIC50, pKi: −log10 of the molar value.

Key:
Cholinesterase [1] = biological target: T1, Cholinesterase (Equus caballus, UniProt P81908); experiment: Inhibition of equine serum BChE using butyrylthiocholine iodide as substrate preincubated for 10 mins followed by substrate addition measured for 5 mins by Ellman's method
T1 sequence (P81908 whole entry): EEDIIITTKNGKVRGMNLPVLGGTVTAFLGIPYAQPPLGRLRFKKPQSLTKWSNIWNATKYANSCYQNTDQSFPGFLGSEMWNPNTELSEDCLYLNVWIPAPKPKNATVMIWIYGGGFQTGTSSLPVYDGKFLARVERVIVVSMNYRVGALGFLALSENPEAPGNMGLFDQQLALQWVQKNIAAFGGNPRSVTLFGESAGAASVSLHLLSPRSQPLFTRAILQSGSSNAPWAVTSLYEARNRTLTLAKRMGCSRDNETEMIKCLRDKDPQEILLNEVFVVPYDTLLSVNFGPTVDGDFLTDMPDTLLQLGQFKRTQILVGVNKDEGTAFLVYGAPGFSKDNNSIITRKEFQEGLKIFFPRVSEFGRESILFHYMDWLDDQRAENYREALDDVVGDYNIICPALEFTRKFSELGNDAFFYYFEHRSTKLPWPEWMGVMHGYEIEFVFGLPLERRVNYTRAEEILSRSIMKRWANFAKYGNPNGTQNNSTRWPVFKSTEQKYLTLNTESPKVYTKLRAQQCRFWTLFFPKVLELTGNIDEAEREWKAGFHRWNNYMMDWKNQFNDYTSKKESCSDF

Acetylcholinesterase [2] = biological target: T2, Acetylcholinesterase (Torpedo californica, UniProt P04058); experiment: Inhibition of Torpedo californica AChE using acetylthiocholine iodide as substrate preincubated for 10 mins followed by substrate addition measured for 5 mins by Ellman's method; type: single protein, Tetronarce californica
T2 sequence (P04058 whole entry): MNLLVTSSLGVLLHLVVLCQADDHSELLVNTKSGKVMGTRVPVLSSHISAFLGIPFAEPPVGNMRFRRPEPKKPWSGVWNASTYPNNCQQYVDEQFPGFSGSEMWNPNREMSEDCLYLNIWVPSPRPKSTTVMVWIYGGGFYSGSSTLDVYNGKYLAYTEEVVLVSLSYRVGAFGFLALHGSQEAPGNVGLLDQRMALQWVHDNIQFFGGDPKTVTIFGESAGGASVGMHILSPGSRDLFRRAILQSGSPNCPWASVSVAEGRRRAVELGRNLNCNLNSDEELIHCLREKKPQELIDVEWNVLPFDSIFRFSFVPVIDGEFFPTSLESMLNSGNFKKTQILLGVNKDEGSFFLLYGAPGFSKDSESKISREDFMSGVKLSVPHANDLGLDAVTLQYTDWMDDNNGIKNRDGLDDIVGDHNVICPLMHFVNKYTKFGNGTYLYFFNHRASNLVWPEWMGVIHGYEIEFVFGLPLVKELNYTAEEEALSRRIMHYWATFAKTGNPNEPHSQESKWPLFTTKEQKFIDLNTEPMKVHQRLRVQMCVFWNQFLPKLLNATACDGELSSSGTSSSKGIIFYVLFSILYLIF

[3] = Selectivity index, ratio of IC50 for Torpedo californica AChE to IC50 for equine serum BChE
Cholinesterase [4] = biological target: T1, Cholinesterase; experiment: Inhibition of equine serum BChE using butyrylthiocholine iodide as substrate preincubated for 15 mins followed by substrate addition measured after 15 mins by Ellman's method
Acetylcholinesterase [5] = biological target: T3, Acetylcholinesterase (Electrophorus electricus, UniProt O42275); experiment: Inhibition of electric eel AChE using acetylthiocholine iodide as substrate preincubated for 15 mins followed by substrate addition measured after 15 mins by Ellman's method
T3 sequence (O42275 whole entry): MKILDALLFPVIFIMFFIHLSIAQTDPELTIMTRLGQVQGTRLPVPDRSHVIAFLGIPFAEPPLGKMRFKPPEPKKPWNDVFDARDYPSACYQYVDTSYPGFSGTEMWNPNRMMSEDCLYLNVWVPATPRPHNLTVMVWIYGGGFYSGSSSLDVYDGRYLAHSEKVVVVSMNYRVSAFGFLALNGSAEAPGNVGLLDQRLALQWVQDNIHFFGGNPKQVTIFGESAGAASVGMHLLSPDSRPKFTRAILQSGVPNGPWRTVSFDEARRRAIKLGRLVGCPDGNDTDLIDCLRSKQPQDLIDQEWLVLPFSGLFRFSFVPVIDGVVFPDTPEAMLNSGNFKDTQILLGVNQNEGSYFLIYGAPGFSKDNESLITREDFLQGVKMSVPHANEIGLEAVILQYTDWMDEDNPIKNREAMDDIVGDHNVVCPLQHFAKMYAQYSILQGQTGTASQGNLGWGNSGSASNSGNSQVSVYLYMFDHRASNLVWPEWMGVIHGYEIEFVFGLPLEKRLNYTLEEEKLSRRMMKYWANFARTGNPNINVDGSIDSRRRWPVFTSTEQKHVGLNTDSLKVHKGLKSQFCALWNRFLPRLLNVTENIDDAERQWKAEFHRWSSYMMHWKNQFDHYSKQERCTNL

[6] = Selectivity index, ratio of IC50 for electric eel AChE to IC50 for equine serum BChE
Acetylcholinesterase [7] = biological target: T3, Acetylcholinesterase; experiment: Inhibition of electric eel AChE using acetylthiocholine iodide as substrate preincubated for 10 mins followed by substrate addition measured for 6 mins by Ellman's method
Cholinesterase [8] = biological target: T1, Cholinesterase; experiment: Inhibition of equine serum BChE using butyrylthiocholine iodide as substrate preincubated for 10 mins followed by substrate addition measured for 6 mins by Ellman's method
Cholinesterase [9] = biological target: T1, Cholinesterase; experiment: Mixed-type inhibition of equine serum BChE using varying levels of butyrylthiocholine iodide as substrate by Lineweaver-burk plot analysis
[10] = biological target: Amyloid-beta precursor protein (Homo sapiens) (UniProt P05067); experiment: Inhibition of HFIP-pretreated amyloid beta (1 to 42) (unknown origin) self-induced aggregation at 10 uM after 48 hrs by thioflavin-T fluorescence assay relative to control
Sequence of Amyloid-beta precursor protein (Homo sapiens) (P05067 whole entry, the tested form may be a part): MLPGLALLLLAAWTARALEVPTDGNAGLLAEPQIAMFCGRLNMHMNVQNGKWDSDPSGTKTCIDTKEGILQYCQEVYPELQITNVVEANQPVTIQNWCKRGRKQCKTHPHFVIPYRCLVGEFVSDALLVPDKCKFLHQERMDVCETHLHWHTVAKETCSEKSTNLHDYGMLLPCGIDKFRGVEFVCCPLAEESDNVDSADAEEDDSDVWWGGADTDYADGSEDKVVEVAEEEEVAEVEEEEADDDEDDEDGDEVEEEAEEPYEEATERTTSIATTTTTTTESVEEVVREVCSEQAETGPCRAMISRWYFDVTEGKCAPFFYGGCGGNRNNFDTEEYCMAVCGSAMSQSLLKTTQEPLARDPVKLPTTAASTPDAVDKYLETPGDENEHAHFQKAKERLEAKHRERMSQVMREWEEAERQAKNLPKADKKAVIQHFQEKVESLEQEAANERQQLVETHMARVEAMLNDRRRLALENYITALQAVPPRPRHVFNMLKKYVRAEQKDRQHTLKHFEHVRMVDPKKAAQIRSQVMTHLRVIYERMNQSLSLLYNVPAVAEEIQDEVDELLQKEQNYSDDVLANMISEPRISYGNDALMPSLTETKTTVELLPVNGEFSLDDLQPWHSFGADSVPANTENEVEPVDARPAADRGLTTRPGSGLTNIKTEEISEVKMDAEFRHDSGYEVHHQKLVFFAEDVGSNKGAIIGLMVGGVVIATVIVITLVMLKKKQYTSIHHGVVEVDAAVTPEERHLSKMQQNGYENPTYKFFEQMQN

[11] = biological target: Beta-secretase 1 (Homo sapiens) (UniProt P56817); experiment: Inhibition of recombinant human BACE1 (1 to 460 residues) expressed in baculovirus-infected insect cells at 10 uM using Rh-EVNLDAEFK-quencher as substrate measured after 90 mins by fluorescence assay relative to control
Sequence of Beta-secretase 1 (Homo sapiens) (P56817 whole entry, the tested form may be a part): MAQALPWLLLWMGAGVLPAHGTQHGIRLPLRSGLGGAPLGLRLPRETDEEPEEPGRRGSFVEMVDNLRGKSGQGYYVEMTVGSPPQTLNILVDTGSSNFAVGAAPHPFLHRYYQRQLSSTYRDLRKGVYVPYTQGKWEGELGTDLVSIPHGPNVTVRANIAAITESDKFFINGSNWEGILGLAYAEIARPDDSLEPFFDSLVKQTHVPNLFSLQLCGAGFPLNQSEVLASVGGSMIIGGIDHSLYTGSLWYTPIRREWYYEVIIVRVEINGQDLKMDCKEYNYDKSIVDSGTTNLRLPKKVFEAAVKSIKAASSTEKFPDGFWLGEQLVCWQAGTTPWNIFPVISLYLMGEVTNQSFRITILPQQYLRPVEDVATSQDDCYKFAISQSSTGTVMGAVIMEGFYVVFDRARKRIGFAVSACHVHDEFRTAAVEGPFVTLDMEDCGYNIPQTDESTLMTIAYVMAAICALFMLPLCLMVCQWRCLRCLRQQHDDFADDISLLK

[12] = biological target: Beta-secretase 1 (Homo sapiens) (UniProt P56817); experiment: Inhibition of recombinant human BACE1 (1 to 460 residues) expressed in baculovirus-infected insect cells at 50 uM using Rh-EVNLDAEFK-quencher as substrate measured after 90 mins by fluorescence assay relative to control
[13] = biological target: Cholinesterase (Homo sapiens) (UniProt P06276); experiment: Inhibition of human BchE (unknown origin)-induced amyloid beta (1 to 42) aggregation at 10 uM after 48 hrs by thioflavin T fluorescence method relative to control
Sequence of Cholinesterase (Homo sapiens) (P06276 whole entry): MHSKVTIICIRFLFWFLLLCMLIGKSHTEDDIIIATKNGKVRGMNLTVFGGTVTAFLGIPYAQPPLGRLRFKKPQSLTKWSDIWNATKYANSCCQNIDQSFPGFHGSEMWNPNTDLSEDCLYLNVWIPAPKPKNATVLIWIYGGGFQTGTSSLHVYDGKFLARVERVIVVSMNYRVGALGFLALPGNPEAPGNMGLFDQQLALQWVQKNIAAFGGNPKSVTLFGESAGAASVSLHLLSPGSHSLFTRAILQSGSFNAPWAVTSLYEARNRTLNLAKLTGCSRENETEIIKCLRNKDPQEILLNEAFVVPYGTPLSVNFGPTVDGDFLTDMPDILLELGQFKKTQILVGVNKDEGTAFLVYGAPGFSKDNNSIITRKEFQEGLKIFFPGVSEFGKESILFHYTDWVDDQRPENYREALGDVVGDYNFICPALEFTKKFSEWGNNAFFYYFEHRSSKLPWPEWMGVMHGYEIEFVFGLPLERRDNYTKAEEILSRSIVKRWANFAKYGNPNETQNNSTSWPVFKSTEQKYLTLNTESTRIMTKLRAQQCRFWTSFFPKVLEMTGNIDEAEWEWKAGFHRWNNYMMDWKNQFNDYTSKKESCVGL

[14] = biological target: Cholinesterase (Equus caballus) (UniProt P81908); experiment: Potency index, ratio of donepezil IC50 to test compound IC50 for equine serum BChE
Sequence of Cholinesterase (Equus caballus) (P81908 whole entry): as the sequence (P81908 whole entry) above

PC-12 = experiment: Neuroprotective activity against H2O2-induced cell death in rat PC12 cells assessed as cell viability at 10 uM pretreated for 3 hrs followed by H2O2 addition and measured after 12 hrs by MTT assay relative to control; type: functional; conditions: read-out: Activity
Cholinesterase [15] = biological target: T1, Cholinesterase; experiment: Inhibition of equine serum BChE using butyrylthiocholine iodide as substrate preincubated for 15 mins followed by substrate addition by Ellman's method
Acetylcholinesterase [16] = biological target: T2, Acetylcholinesterase; experiment: Inhibition of Torpedo californica AChE using acetylthiocholine iodide as substrate preincubated for 15 mins followed by substrate addition by Ellman's method; design: species or system Tetronarce californica

Compound	pIC50 (Cholinesterase [1])	pIC50 (Acetylcholinesterase [2])	Ratio IC50 [3]	further results
Fc1ccccc1C[n+]1ccc(Cn2c3c(c4ccccc42)CCCC3)cc1	6.20	4.52	47.6	
Clc1cccc(C[n+]2cccc(Cn3c4c(c5ccccc53)CCCC4)c2)c1	6.60	4.52	120	
c1ccc(C[n+]2ccc(Cn3c4c(c5ccccc53)CCCC4)cc2)cc1	6.32	4.52	62.6	
c1ccc(C[n+]2cccc(Cn3c4c(c5ccccc53)CCCC4)c2)cc1	6.42	4.32	126	
Clc1ccccc1C[n+]1ccc(Cn2c3c(c4ccccc42)CCCC3)cc1	6.54	5.19	22.4	
Cc1ccccc1C[n+]1ccc(Cn2c3c(c4ccccc42)CCCC3)cc1	6.40	5.08	21	
Fc1ccccc1C[n+]1cccc(Cn2c3c(c4ccccc42)CCCC3)c1	6.29	4.17	133	
Cc1cccc(C[n+]2cccc(Cn3c4c(c5ccccc53)CCCC4)c2)c1	6.96	4.77	153	
Clc1ccccc1C[n+]1cccc(Cn2c3c(c4ccccc42)CCCC3)c1	6.70	4.44	180	
Cc1ccccc1C[n+]1cccc(Cn2c3c(c4ccccc42)CCCC3)c1	6.42	4.33	124	
O=C(NCc1cc[n+](Cc2cccc(F)c2)cc1)c1cc2ccccc2oc1=O				pIC50 (Cholinesterase [4]): 4.92; pIC50 (Acetylcholinesterase [5]): 4.99; Ratio IC50 [6]: 0.83
O=C1Nc2ccccc2/C1=C\c1cc[n+](Cc2ccccc2Cl)cc1				pIC50 (Acetylcholinesterase [7]): 9.40; pIC50 (Cholinesterase [8]): 2.86; Ratio IC50 [6]: 3110
Cc1ccc(C[n+]2cccc(Cn3c4c(c5ccccc53)CCCC4)c2)cc1	7.06	4.80	181	pKi (Cholinesterase [9]): 7.05; inhibition [10]: 55.7%; inhibition [11]: 10%; inhibition [12]: 30%; inhibition [13]: 51.8%; Ratio IC50 [14]: 3.97; viability at 10 µM (PC-12): 65%
O=C1c2ccccc2C(=O)N1Cc1cc[n+](Cc2ccccc2F)cc1			11.3	pIC50 (Cholinesterase [15]): 5.06; pIC50 (Acetylcholinesterase [16]): 6.11
Clc1ccc(C[n+]2ccc(Cn3c4c(c5ccccc53)CCCC4)cc2)cc1	5.68	4.59	12.2	
Clc1ccc(C[n+]2cccc(Cn3c4c(c5ccccc53)CCCC4)c2)cc1	6.66	4.56	124	
Fc1cccc(C[n+]2ccc(Cn3c4c(c5ccccc53)CCCC4)cc2)c1	6.01	4.46	35	
Fc1cccc(C[n+]2cccc(Cn3c4c(c5ccccc53)CCCC4)c2)c1	6.25	4.11	138	
O=C1CCC(=O)N1Cc1cc[n+](Cc2cccc(F)c2)cc1			6.34	pIC50 (Cholinesterase [15]): 4.34; pIC50 (Acetylcholinesterase [16]): 5.14
Cc1cccc(C[n+]2ccc(Cn3c4c(c5ccccc53)CCCC4)cc2)c1	6.62	5.29	21.2	
Cc1ccc(C[n+]2ccc(Cn3c4c(c5ccccc53)CCCC4)cc2)cc1	6.15	4.85	20	
Fc1ccc(C[n+]2ccc(Cn3c4c(c5ccccc53)CCCC4)cc2)cc1	6.14	4.48	44.9	
Fc1ccc(C[n+]2cccc(Cn3c4c(c5ccccc53)CCCC4)c2)cc1	6.28	4.14	138	
Clc1cccc(C[n+]2ccc(Cn3c4c(c5ccccc53)CCCC4)cc2)c1	6.59	5.32	18.5	
